This assay relates to pERK after EGF stimulation in DLD1 cells. Briefly: ERK phosphorylation assay (alphascreen pERK). Type of assay: cell-based. The note with it: Homo sapiens, DLD-1, 2 h compound, 200 ng/ml hEGF for 5 minutes, read-out: ERK phosphorylation inhibition IC50. As for the experimental part: Compounds were tested for their ability to inhibit pERK after EGF stimulation in DLD1 cells. Cells were seeded at 0.2 million cells per well in 96 well cell binding tissue culture plate in 100 μL complete media and were allowed to settle overnight (16 to 20 h). On the following day, cells were treated with various concentrations of test compounds for 2 h followed by stimulation with 200 ng/ml hEGF (diluted in PBS) for 5 minutes. Cells were then washed once with PBS and lysed in freshly prepared lysis buffer (provided with alphascreen surefire ERK1/2 p-T202/Y204 assay kit, cat no: TGRESB10K, Perkin Elmer). Lysis was carried out in plate shaker for 10-15 mins. Lysate was transferred to […] white opti-plate (Perkin Elmer) and alphascreen for pERK was carried out as per manufacturer's instructions. Plate was read after 2 h incubation in plate shaker at […] 300 RPM, 25-28° C. The difference between the unstimulated and stimulated Vehicle control is considered as 100% ERK phosphorylation, and % inhibition of compounds is calculated accordingly.

From patent publication US20260209247A1, “Substituted Tricyclic Compounds” (Lupin Limited, priority 2019, published 2026) come the findings set out here.

One may read the IC50 as the point on the concentration scale where inhibition reaches its midpoint.

With `Cc1nc(NC(C)c2cccc(C(O)(CO)C(F)(F)F)c2F)c2cc3c(cc2n1)OC(C)(C)C(=O)N3C` (racemic) [Compound 22, 4-(((R&S)-1-(2-Fluoro-3-((R&S)-1,1,1-trifluoro-2,3-dihydroxypropan-2-yl)phenyl)ethyl)amino)-2,6,8,8-tetramethyl-6H-[1,4]oxazino[3,2-g]quinazolin-7(8H)-one], the half-maximal inhibitory concentration (IC50) lay within 201 to 500 nM.

With `CO[C@]1(C)C(=O)N(C)c2cc3c(N[C@H](C)c4cccc(C(F)(F)[C@](C)(O)CO)c4F)nc(C)nc3cc21` (racemic) [Compound 103, (S/R)-4-(((R/S)-1-(3-((R/S)-1,1-difluoro-2,3-dihydroxy-2-methylpropyl)-2-fluorophenyl)ethyl)amino)-8-methoxy-2,6,8-trimethyl-6,8-dihydro-7H-pyrrolo[2,3-g]quinazolin-7-one], the half-maximal inhibitory concentration (IC50) lay in the range of 201 to 500 nM. `Cc1nc(N[C@H](C)c2cccc(C(F)(F)[C@@](C)(O)CN(C)C)c2F)c2cc3c(cc2n1)C(C)(C)C(=O)N3C` (racemic) [Compound 129b, 4-(((R)-1-(3-((S/R)-3-(dimethylamino)-1,1-difluoro-2-hydroxy-2-methylpropyl)-2-fluorophenyl)ethyl)amino)-2,6,8,8-tetramethyl-6,8-dihydro-7H-pyrrolo[2,3-g]quinazolin-7-one]: the IC50 was 1 to 200 nM.

On to `CNC[C@](C)(O)C(F)(F)c1cccc([C@@H](C)Nc2nc(C)nc3cc4c(cc23)N(C)C(=O)C4(C)C)c1F` (racemic) [Compound 130b, 4-(((R)-1-(3-((S/R)-1,1-difluoro-2-hydroxy-2-methyl-3-(methylamino)propyl)-2-fluorophenyl)ethyl)amino)-2,6,8,8-tetramethyl-6,8-dihydro-7H-pyrrolo[2,3-g]quinazolin-7-one], for which the IC50 fell in the range of 1 to 200 nM. `Cc1nc(N[C@H](C)c2cccc(C3CCCNC3)c2F)c2cc3c(cc2n1)C(C)(C)C(=O)N3C` (mixture of isomers) [Compound 133, (R & S)-4-(((R)-1-(2-fluoro-3-((R & S)-piperidin-3-yl)phenyl)ethyl)amino)-2,6,8,8-tetramethyl-6,8-dihydro-7H-pyrrolo[2,3-g]quinazolin-7-one]: the IC50 fell in the range of 201 to 500 nM. As for `COC1(C)C(=O)N(C)c2cc3nc(C)nc(N[C@H](C)c4cc(N)cc(C(F)(F)F)c4)c3cc21` (mixture of isomers) [Compound 137, 4—(((R)-1-(3-amino-5-(trifluoromethyl)phenyl)ethyl)amino)-6-methoxy-2,6,8-trimethyl-6,8-dihydro-7H-pyrrolo[3,2-g]quinazolin-7-one], the figure is 1 to 200 nM. On to `Cc1nc(NC(C)c2cc(N)cc(C(F)F)c2)c2cc3c(cc2n1)OCC(=O)N3C` (single isomer, unassigned) [Compound 5, (R/S)-4-((1-(3-Amino-5-(difluoromethyl)phenyl)ethyl)amino)-2,6-dimethyl-6H-[1,4]oxazino[3,2-g]quinazolin-7(8H)-one], for which the IC50 was in the range of 1 to 200 nM. Then `Cc1nc(N[C@H](C)c2cccc([C@@](O)(CO)C(F)(F)F)c2F)c2cc3c(cc2n1)OC(C)(C)C(=O)N3C` (single isomer, unassigned) [Compound 22b, 4-(((R/S)-1-(2-fluoro-3-((R/S)-1,1,1-trifluoro-2,3-dihydroxypropan-2-yl)phenyl)ethyl)amino)-2,6,8,8-tetramethyl-6H-[1,4]oxazino[3,2-g]quinazolin-7(8H)-one], with 201 to 500 nM; and `Cc1nc(N[C@H](C)c2cccc(C(F)(F)C(C)(C)O)c2F)c2cc3c(cc2n1)O[C@@H](C(C)C)C(=O)N3C` (single isomer, unassigned) [Compound 32a], with 1 to 200 nM. In the case of `Cc1nc(N[C@H](C)c2cc(N)cc(C(F)(F)F)c2)c2cc3c(cc2n1)OCCN3CC1CCOC1` (single isomer, unassigned) [Compound 43], the concentration for half-maximal inhibition (IC50) lay in the range of 1 to 200 nM. Then `Cc1nc(NC(C)c2cc(N)cc(C(F)F)c2)c2cc3c(cc2n1)C(C)(C)C(=O)N3C` (single isomer, unassigned) [Compound 69, (R/S)-4-((1-(3-amino-5-(difluoromethyl)phenyl)ethyl)amino)-2,6,8,8-tetramethyl-6H-pyrrolo[2,3-g]quinazolin-7(8H)-one], with 1 to 200 nM; and `Cc1nc(N[C@H](C)c2cccc(C(F)(F)[C@](C)(O)CO)c2F)c2cc3c(cc2n1)C(C)(C)C(=O)N3C` (single isomer, unassigned) [Compound 76b], with 201 to 500 nM; and `COC1(C)C(=O)N(C)c2cc3nc(C)nc(N[C@H](C)c4cccc(C(F)(F)C(C)(C)O)c4F)c3cc21` (single isomer, unassigned) [Compound 96b], with 1 to 200 nM. As for `Cc1nc(N[C@H](C)c2cccc(C(F)(F)C(C)(C)O)c2F)c2cc3c(cc2n1)C(C)(F)C(=O)N3C` (single isomer, unassigned) [Compound 116a], the figure is 201 to 500 nM; as for `Cc1nc(N[C@H](C)c2cccc(C(F)(F)C(C)(C)O)c2F)c2cc3c(cc2n1)[C@](C)(F)C(=O)N3C` (single isomer, unassigned) [Compound 116b], 1 to 200 nM; as for `COCCC1(C)C(=O)N(C)c2cc3c(N[C@H](C)c4cccc(C(F)(F)C(C)(C)O)c4F)nc(C)nc3cc21` (single isomer, unassigned) [Compound 123b], 1 to 200 nM. For the compound `COC1(C(F)(F)F)C(=O)N(C)c2cc3c(N[C@H](C)c4cccc(C(F)(F)C(C)(C)O)c4F)nc(C)nc3cc21` (single isomer, unassigned) [Compound 125a], the IC50 lay in the range of 201 to 500 nM. Then `CO[C@]1(C(F)(F)F)C(=O)N(C)c2cc3c(N[C@H](C)c4cccc(C(F)(F)C(C)(C)O)c4F)nc(C)nc3cc21` (single isomer, unassigned) [Compound 125b], with 1 to 200 nM; and `CCC1(OC)C(=O)N(C)c2cc3c(N[C@H](C)c4cccc(C(F)(F)C(C)(C)O)c4F)nc(C)nc3cc21` (single isomer, unassigned) [Compound 126a], with 1 to 200 nM; and `CC[C@@]1(OC)C(=O)N(C)c2cc3c(N[C@H](C)c4cccc(C(F)(F)C(C)(C)O)c4F)nc(C)nc3cc21` (single isomer, unassigned) [Compound 126b], with 201 to 500 nM. Then `COCC(C)(O)C(F)(F)c1cccc([C@@H](C)Nc2nc(C)nc3cc4c(cc23)N(C)C(=O)C4(C)C)c1F` (single isomer, unassigned) [Compound 127a], with 201 to 500 nM.

As to `COCCC1(OC)C(=O)N(C)c2cc3c(N[C@H](C)c4cccc(C(F)(F)C(C)(C)O)c4F)nc(C)nc3cc21` (single isomer, unassigned) [Compound 132a], the half-inhibitory concentration (IC50) lay within 1 to 200 nM.

For the compound `Cc1nc(NC(C)c2cccc(C(F)(F)F)c2F)c2cc3c(cc2n1)C(C)(C)C(=O)N3C` (single isomer, unassigned) [Compound 134, (R/S)-4-((1-(2-fluoro-3-(trifluoromethyl)phenyl)ethyl)amino)-2,6,8,8-tetramethyl-6,8-dihydro-7H-pyrrolo[2,3-g]quinazolin-7-one], the half-maximal inhibitory concentration (IC50) lay in the range of 201 to 500 nM. As for `Cc1nc(N[C@H](C)c2cccc(C(F)(F)C(C)(C)O)c2F)c2cc3c(cc2n1)OCC(=O)N3C` [Compound 3, (R)-4-((1-(3-(1,1-difluoro-2-hydroxy-2-methylpropyl)-2-fluorophenyl)ethyl)amino)-2,6-dimethyl-6H-[1,4]oxazino[3,2-g]quinazolin-7(8H)-one], the figure is 201 to 500 nM; as for `CCc1nc(N[C@H](C)c2cc(N)cc(C(F)(F)F)c2)c2cc3c(cc2n1)OCC(=O)N3C` [Compound 14, (R)-4-((1-(3-amino-5-(trifluoromethyl)phenyl)ethyl)amino)-2-ethyl-6-methyl-6H-[1,4]oxazino[3,2-g]quinazolin-7(8H)-one], 1 to 200 nM. In the case of `Cc1nc(N[C@H](C)c2cccc(C(F)(F)C(C)(C)O)c2F)c2cc3c(cc2n1)OC(C)(C)C(N1CCOCC1)=N3` [Compound 26, (R)-1,1-Difluoro-1-(2-fluoro-3-(1-((2,8,8-trimethyl-7-morpholino-8H [1,4]oxazino[3,2-g]quinazolin-4-yl)amino)ethyl)phenyl)-2-methylpropan-2-ol], the IC50 lay within 201 to 500 nM. Then `Cc1nc(N[C@H](C)c2cccc(C(F)(F)C(C)(C)O)c2F)c2cc3c(cc2n1)OC(C)(C)C(=O)N3C` [Compound 33, (R)-4-((1-(3-(1,1-Difluoro-2-hydroxy-2-methylpropyl)-2-fluorophenyl)ethyl)amino)-2,6,8,8-tetramethyl-6H-[1,4]oxazino[3,2-g]quinazolin-7(8H)-one], with 1 to 200 nM; and `Cc1nc(N[C@H](C)c2cccc(C(F)(F)C(C)(C)O)c2F)c2cc3c(cc2n1)n(C)c(=O)c(=O)n3C` [Compound 40, (R)-4-((1-(3-(1,1-Difluoro-2-hydroxy-2-methylpropyl)-2-fluorophenyl)ethyl)amino)-2,6,9-trimethyl-6,9-dihydropyrazino[2,3-g]quinazoline-7,8-dione], with 201 to 500 nM; and `CCN1C(=O)C(C)(C)Oc2cc3nc(C)nc(N[C@H](C)c4cccc(C(F)(F)C(C)(C)O)c4F)c3cc21` [Compound 41, (R)-4-((1-(3-(1,1-difluoro-2-hydroxy-2-methylpropyl)-2-fluorophenyl)ethyl)amino)-6-ethyl-2,8,8-trimethyl-6H-[1,4]oxazino[3,2-g]quinazolin-7(8H)-one], with 201 to 500 nM. For `Cc1nc(N[C@H](C)c2cccc(C(F)(F)C(C)(C)O)c2)c2cc3c(cc2n1)OC(C)(C)C(=O)N3C` [Compound 57, (R)-4-((1-(3-(1,1-difluoro-2-hydroxy-2-methylpropyl)phenyl)ethyl)amino)-2,6,8,8-tetramethyl-6H-[1,4]oxazino[3,2-g]quinazolin-7(8H)-one], the IC50 lay within 1 to 200 nM.
